# Reference: US8492614B2, “Plant biochemical systems and uses thereof” (The Board of Trustees of the University of Illinois, priority 2007, dated 2013)
# Entries after “also recorded” stand apart in the source; their conditions may differ.
# T1: PD1 (Arabidopsis thaliana, UniProt Q9ZUY3)
# T1 construct: Full-length GPA1 and PD1 templates were amplified, prepared, and purified by the methods described; made in house; host or cells: cell-free: TNT T7 coupled wheat germ extract system (Promega)
# T1 sequence (Q9ZUY3 25-424): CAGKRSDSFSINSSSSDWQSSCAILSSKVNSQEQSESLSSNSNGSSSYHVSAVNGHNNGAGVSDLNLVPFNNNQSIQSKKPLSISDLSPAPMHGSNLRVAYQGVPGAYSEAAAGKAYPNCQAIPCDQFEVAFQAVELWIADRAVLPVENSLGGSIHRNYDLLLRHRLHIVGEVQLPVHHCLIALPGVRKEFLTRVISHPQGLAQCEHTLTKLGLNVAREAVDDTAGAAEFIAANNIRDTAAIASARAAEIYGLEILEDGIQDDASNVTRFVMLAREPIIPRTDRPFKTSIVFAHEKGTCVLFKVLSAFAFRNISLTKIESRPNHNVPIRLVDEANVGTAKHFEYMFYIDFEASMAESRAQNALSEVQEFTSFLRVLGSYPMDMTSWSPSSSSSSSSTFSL
# T1 sequence (P18064 1-383 partner): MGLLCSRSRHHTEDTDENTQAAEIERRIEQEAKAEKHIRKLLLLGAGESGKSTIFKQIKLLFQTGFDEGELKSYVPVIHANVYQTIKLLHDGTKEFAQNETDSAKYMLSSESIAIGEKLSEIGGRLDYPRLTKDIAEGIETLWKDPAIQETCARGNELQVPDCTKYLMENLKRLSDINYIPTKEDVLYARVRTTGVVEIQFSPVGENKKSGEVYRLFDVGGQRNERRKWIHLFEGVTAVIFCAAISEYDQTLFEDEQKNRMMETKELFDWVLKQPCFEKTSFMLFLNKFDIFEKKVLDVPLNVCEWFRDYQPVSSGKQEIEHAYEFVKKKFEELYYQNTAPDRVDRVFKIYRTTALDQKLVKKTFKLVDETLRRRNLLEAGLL
# Key:
# [1] = Stability of absorbance spectra of cell free extracts with or without phenylalanine; type: physicochemical, Arabidopsis; settings: cell free extracts in buffer; 24 h, room temperature or +4° C., lab lighting
# Method: Cell free extracts were left at room temperature for 24 h after a 10^5 μmol m^−2 treatment of UV (366 nm) in lab lighting (which is fluorescent).
# [2] = test system: etiolated Arabidopsis seedlings; assay: Cotyledon natural fluorescence by deconvoluting microscopy; type: in vivo; settings: hormone applied to etiolated cotyledons; 24 h; 1.0 μM ABA, 500 μM JA
# Method: Fluorescent images were obtained of living unfixed seedlings 24 h post BL or ABA treatment as described in the “Plant Growth and Preparation of Tissue” section. Optical sectioning was achieved by using a Zeiss Axiovert 200M microscope (Carl Zeiss), equipped with ApoTome (collected by grid projection), and a digital camera and the 4#,6-diamino-phenylindole, fluorescein isothiocyanate, and Texas Red filter sets (Chroma). Photographs of whole cotyledon fluorescence were snapped on the same microscope set up, minus the apoTome setting.
# The preparation of whole cell extracts from the areal portions of the seedlings for the quantification of Phe levels and PD1 activity levels is described in (Warpeha et al., Plant Physiol. 143:1590-1600, 2007). Phe concentration is determined by HPLC. […] Natural fluorescence of the cotyledons is visualized and quantitated by deconvoluting microscopy using a “DAPI-Long Pass” filter which allows excitation between 300-380 nm and emits with a cutoff […] 400 nm.
# If the Phe produced by activated PD1 is necessary for the ability of young etiolated seedlings to respond to UV-B, salt or heat stress, then it is possible that the addition of exogenous Phe (effectively cross feeding Phe) could restore a wild type response to GCR1, GPA1 and PD1 mutants when assayed for cotyledon fluorescence and the ability to survive sub-lethal levels of UV-C. To determine if exogenous Phe can restore wild type responses to GCR1, GPA, and PD1 mutants, 1 mM Phe is added to the top agar during planting and the experiment described above specifically testing for cotyledon surface fluorescence and the ability to survive sub-lethal levels of UV-C is repeated. Serine and […] are used as negative controls in these assays.
# The experiments described above for examining if GCR1, GPA1 and PD1 are required for young etiolated seedlings to respond to UV-B, salt or heat stress are performed but with ABA, ACC, JA and SA substituting for UV-B, salt and heat. For these experiments, ABA is tested at 1.0 μM dissolved in ethanol and applied as an atomized mist. […]
# [3] = test system: Lhcb expression; assay: Lhcb RNA levels by northern analysis after ABA treatment of etiolated seedlings; type: in vivo, Arabidopsis; settings: 800 nM ABA
# Method: Six-d-old dark-grown Arabidopsis seedlings col wild type or insertion mutants were grown on 0.8% agarose plates containing only 0.5× Murashige and Skoog media as described in Lapik and Kaufman (2003). The growth media contains no additional sugar, hormones, vitamins or other nutrients. Seedlings were irradiated with a single pulse (10 s) of low fluence BL (total fluence of 10^2 μmol m^−2); or a single pulse (100 s) of saturation fluence BL (total fluence of 10^4 μmol m^−2); or no light (DK), and/or, treated with 800 nM ABA dissolved in ethanol, or ethanol alone, placed back in the dark for two h after which total RNA was extracted and used for northern blot analysis (Lapik and Kaufman, 2003). Lhcb and rDNA probes used, quantitation methods, and means of normalization to rRNA levels are described elsewhere (Marrs and Kaufman, (1991) Planta 183: 327-333). […] All induction data is correct for loading through the quantitation of the rRNA as described (Warpeha and Kaufman, (1990) Planta 182: 553-558). […] Real time quantitative PCR (qPCR) was used to measure the level of Lhcb RNA induction in response to a single pulse of low fluence blue light as a confirmation of the Northern blot analysis methods. […] The qPCR-derived information (4 different RNA sets of Dark and BL-treated) data was analyzed using (ΔΔCoT). […]
# [4] = test system: PD1; assay: Cytosolic PD1 activity after ABA treatment of etiolated seedlings; type: in vivo, Arabidopsis; settings: ABA treatment of etiolated wild type
# Excerpt: Activated GPA1 has a specific physical interaction with PD1 that results in a significant increase in PD1 activity. PD1 is the only member of the PD family that is expressed in etiolated Arabidopsis. […] The increase in PD1 activity in response to BL or ABA treatment also requires GCR1. BL Irradiation or ABA treatment of pd1, gcr1 and gpa1 T-DNA insertion mutants result in none of these events described for wt. We conclude that GCR1, GPA1 and PD1 form a signaling chain that is responsible for ABA and BL induced synthesis of phenylpyruvate, phenylalanine and a series of UV absorbing products from the phenylpropanoid pathway. In etiolated seedlings phenylalanine is synthesized via a phenylpyruvate intermediate, much like in bacteria and fungi, and not via an arogenate pathway (Warpeha et al., Plant Physiol. 140:844-855).
# All plants are returned to complete darkness for two hours after which cytosolic extracts are prepared and assayed as described infra.
# [5] = target: T1, PD1; assay: In vitro GPA1-PD1 activation assay; type: biochemical; settings: compared with inactive (GDP or GDPβS) or no GPA1
# Method: Full-length GPA1 and PD1 templates were amplified, prepared, and purified by the methods described (Lapik and Kaufman, 2003). GPA1 and PD1 proteins were individually produced by coupled in vitro transcription/translation using TNT T7 coupled wheat germ extract system (Promega). In vitro association assays were conducted by mixing approximately equimolar concentrations of GPA1 with PD1 in PD assay buffer at 4° C. with modifications for plants: 50 mM K2PO4 pH 7.5, 1.0 mM dithiothreitol, […], and 0.5% protease inhibitor cocktail for plants. Activated GPA1 was achieved by preincubation with […] (a nonhydrolyzable GTP analog). Inactivated GPA1 was achieved by preincubation with GDP, or GDPγS (a nonhydrolyzable GDP analog). […] Reaction mixtures were stopped at time zero and various time points thereafter by adding 0.5 volume of 1N NaOH.
# The increase in activity occurs quickly as approximately 90% of the measured increase in activity occurs within the first 10 min of incubation.
molecule,measurement,setting,value
"CSCC[C@H](N)C(=O)O [L-methionine, reference compound]","stability of the extract solution (absorbance spectra, pigments) over time",[1],did not increase stability of the solution
"CC/C=C\C[C@H]1C(=O)CC[C@@H]1CC(=O)O [JA, jasmonic acid, reference compound]",accumulation of UV- and BL-absorbing fluorescent material in cotyledons,[2],"response pattern is identical to that of UV-B, salt and heat"
"CC1=CC(=O)CC(C)(C)[C@@]1(O)/C=C/C(C)=C\C(=O)O [ABA, abscisic acid]",Lhcb RNA accumulation in mutant seedlings,"[3]; gcr1, gpa1, prn1, nf-y-b9, nf-y-a5 mutants",fails to induce Lhcb RNA accumulation
same,Lhcb expression in wild type seedlings,[3]; six-d-old etiolated wild type,induces Lhcb expression
same,accumulation of UV- and BL-absorbing fluorescent material in cotyledons,[2],"phenotype identical to that observed in wild-type seedlings for BL irradiation; also recorded: response pattern is identical to that of UV-B, salt and heat"
same,cytosolic PD1 activity,[4],increase in cytosolic PD1 activity
"activated GPA1: Arabidopsis G-protein Gα subunit made by in vitro transcription/translation, activated with GTPγS (protein, UniProt P18064 2-383, looked up, GTPγS-bound) Guanine nucleotide-binding …: GLLCSRSRHHTEDTDENTQAAEIERRIEQEAKAEKHIRKLLLLGAGESGKSTIFKQIKLLFQTGFDEGELKSYVPVIHANVYQTIKLLHDGTKEFAQNETDSAKYMLSSESIAIGEKLSEIGGRLDYPRLTKDIAEGIETLWKDPAIQETCARGNELQVPDCTKYLMENLKRLSDINYIPTKEDVLYARVRTTGVVEIQFSPVGENKKSGEVYRLFDVGGQRNERRKWIHLFEGVTAVIFCAAISEYDQTLFEDEQKNRMMETKELFDWVLKQPCFEKTSFMLFLNKFDIFEKKVLDVPLNVCEWFRDYQPVSSGKQEIEHAYEFVKKKFEELYYQNTAPDRVDRVFKIYRTTALDQKLVKKTFKLVDETLRRRNLLEAGLL",increase in PD1 activity,[5],2 fold
